According to US4877727A, “Substrate for determining leucine aminopeptidase or gamma-glutamyltranspeptase activity” (Kyowa Medex Co., Ltd., priority 1984, dated 1989):
Converted amounts (≈) assume the structure as drawn. One block for each compound: values may come before it.

Tests used:
[1] = Maximum wavelength of formed pigment; assay type: physicochemical
Method: 50 μl of 1 mM each free compound was added to 3 ml of 0.1M phosphate buffer containing 0.5 mg/ml EMSE and 1 U/ml laccase and the mixture was incubated at 37° C. for 5 minutes. The absorption of the reaction solution at λmax was measured. As a control, 5-aminosalicylic acid was used and the reaction of the compound with 2,6-xylenol was carried out in the presence of metaperiodate under strong alkaline conditions.

Stability of pigment = assay type: physicochemical
Solubility of substrate = assay type: physicochemical; settings: read-out: S: Solubility
[2] = target: T1, γ-glutamyltranspeptidase (γ-GTP) (Homo sapiens, UniProt P19440); assay: γ-GTP determination in serum (Example 3); assay type: biochemical; settings: found with the compound as substrate; standard serum 235 mU/ml; 37° C., 5 minutes; wavelength of Table 2
T1 construct: from tissue; host or cells: serum
T1 sequence (P19440 1-380 limits assumed): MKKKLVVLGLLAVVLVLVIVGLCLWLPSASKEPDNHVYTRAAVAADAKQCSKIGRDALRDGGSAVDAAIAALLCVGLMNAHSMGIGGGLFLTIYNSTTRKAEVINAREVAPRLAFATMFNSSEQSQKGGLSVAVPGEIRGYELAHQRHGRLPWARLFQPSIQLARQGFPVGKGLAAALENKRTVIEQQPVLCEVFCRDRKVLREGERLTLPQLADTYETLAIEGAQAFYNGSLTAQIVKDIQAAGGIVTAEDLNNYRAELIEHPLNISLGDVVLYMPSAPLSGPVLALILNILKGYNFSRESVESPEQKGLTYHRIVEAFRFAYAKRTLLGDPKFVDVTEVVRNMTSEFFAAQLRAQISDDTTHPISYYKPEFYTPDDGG
T1 sequence (P19440 381-569 limits assumed): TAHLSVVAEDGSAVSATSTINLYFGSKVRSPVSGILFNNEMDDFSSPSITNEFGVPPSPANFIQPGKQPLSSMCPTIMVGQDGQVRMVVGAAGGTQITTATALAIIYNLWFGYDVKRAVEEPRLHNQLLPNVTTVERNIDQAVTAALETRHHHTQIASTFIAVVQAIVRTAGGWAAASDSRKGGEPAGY
Method: In this example, 500 mg of compound Nos. 1, 3, 5, 7 and 9 each and 500 mg of glycylglycine were dissolved in 100 ml (pH=7.7) and 0.1M phosphate buffer. The resultant solutions were designated A-1, A-3, A-5, A-7 and A-9, respectively. 50 mg of 3-{N-(m-tolyl)-N-ethyl}amino-2-hydroxypropane sulfonic acid was dissolved in 100 ml of phosphate buffer solution to obtain solution B. 50 mg/ml sodium meta-periodate containing 1N-HCl solution was prepared as solution C.
6 ml of solution A-1, A-3, A-5, A-7 or A-9 was equally poured to 3 test tubes. The samples were incubated at 37° C. and to the solution was added […] of (a) serum sample (b) standard serum or (c) water. The mixtures were stirred and heated for 5 minutes. After 5 minutes had passed, 1 ml of solution B and 1 ml of solution C were added to each of the mixtures and the mixtures were incubated for 10 minutes after stirring. As the standard serum, a serum having 235 mU/ml of γ-GTP was used.
The γ-GTP activity of the serum sample can be calculated by the following equation. [formula]

[3] = tested on: leucine aminopeptidase (LAP); assay: LAP determination in serum, absorption change per minute (Example 1); assay type: biochemical
Method: 3 ml of the reagent solution was incubated at 37° C. for ten minutes. To the solution was added 0.05 ml of a serum sample and the mixture was immediately stirred and the change in absorption of the solution at 745 nm was measured for one minute.
LAP activity in the sample can be calculated using the following equation: [formula] ΔE means the amount of absorption change per minute.
The same procedures as described above were repeated except that the following materials were used. […]

[4] = tested on: leucine aminopeptidase (LAP); assay: LAP determination in serum, end-point colour reactions (Example 2); assay type: biochemical
Method: The reagent solution wherein laccase was excluded from the reagent solution of Example 1 was used.
3 ml of the reagent solution was incubated at 37° C. for 10 minutes and to the mixture was added 0.05 ml of a serum sample. The mixture was immediately stirred and incubated at 37° C. for 10 minutes. After ten minutes passed,
(a) 0.03 ml of 10 mg/ml α-naphthol methanol solution and 0.1 ml of 1N-NaOH solution containing 50 mg/ml sodium salt of meta-periodate were added to the solution. The mixture was incubated at 37° C. for 10 minutes and the absorption of the reaction solution at 600 nm was measured.
(b) 1 ml of 10 mg/ml p-N,N-dimethylamino cinnamaldehyde ethanol solution and 1 ml of 0.4N-HCl solution were added to the solution and the mixture was incubated at 37° C. for 10 minutes. The absorption of the reaction solution at 570 nm was measured.
(c) 0.5 ml of 1N-HCl and 0.5 ml of 1 mg/ml sodium nitrite were added to the solution and the mixture was incubated at 37° C. for 10 minutes. Then 0.1 ml of 1 mg/ml 3,5-xylenol ethanol solution was added thereto and the absorption of the reaction solution at 650 nm was measured.

λmax: Maximum wavelength [1]: 680 nm | ST: Stability of pigment (Stability of pigment): 93% | solubility (Solubility of substrate): > 20 mg/mL | γ-GTP activity of the serum sample [2]: 240 mU/ml
Structure (SMILES): N[C@@H](CCC(=O)Nc1ccc(N(CCCS(=O)(=O)O)CCCS(=O)(=O)O)c(S(=O)(=O)O)c1)C(=O)O [compound 7]

λmax: Maximum wavelength [1]: 685 nm | ST: Stability of pigment (Stability of pigment): > 98% | solubility (Solubility of substrate): > 200 mg/mL | γ-GTP activity of the serum sample [2]: 242 mU/ml
Structure (SMILES): N[C@@H](CCC(=O)Nc1ccc(N(CCCS(=O)(=O)O)CCCS(=O)(=O)O)c(Cl)c1)C(=O)O [compound 9]

λmax: Maximum wavelength [1]: 740 nm | ST: Stability of pigment (Stability of pigment): > 98% | solubility (Solubility of substrate): 170 mg/mL (≈ 421 mM) | γ-GTP activity of the serum sample [2]: 236 mU/ml
Structure (SMILES): CCN(CC(O)CS(=O)(=O)O)c1ccc(NC(=O)CC[C@H](N)C(=O)O)cc1 (stereo partly shown) [compound 5]

λmax: Maximum wavelength [1]: 750 nm | ST: Stability of pigment (Stability of pigment): > 96% | solubility (Solubility of substrate): 80 mg/mL (≈ 214 mM) | γ-GTP activity of the serum sample [2]: 228 mU/ml
Structure (SMILES): CN(CCCS(=O)(=O)O)c1ccc(NC(=O)CC[C@H](N)C(=O)O)cc1 [compound 3]

λmax: Maximum wavelength [1]: 745 nm | ST: Stability of pigment (Stability of pigment): > 98% | solubility (Solubility of substrate): 130 mg/mL (≈ 279 mM) | amount of absorption change per minute ([3]; Serum (2), same wavelengths): 0.0395 | amount of absorption change per minute ([3]; Serum (3), same wavelengths): 0.0543 | amount of absorption change per minute ([3]; Serum (4), same wavelengths): 0.0541 | amount of absorption change per minute ([3]; Serum (5), same wavelengths): 0.0382 | amount of absorption change per minute ([3]; Serum (6), same wavelengths): 0.0437 | amount of absorption change per minute ([3]; Serum (7), same wavelengths): 0.0400 | amount of absorption change per minute ([3]; Serum (8), same wavelengths): 0.0532 | amount of absorption change per minute ([3]; Serum (9), same wavelengths): 0.0537 | amount of absorption change per minute ([3]; Serum (10), same wavelengths): 0.0476 | amount of absorption change per minute ([3]; Serum(1), 37° C., 745 nm Compound No. 2, 635 nm (a), 565 nm (b), 675 nm (c)): 0.0454 | Ratio of sensitivity ([4]; Example 1 method (EMSE + laccase, 745 nm), reference): 100 | absorption of the reaction solution ([4]; method (a) α-naphthol + meta-periodate/NaOH, 600 nm, Serum 1): 0.331 | absorption of the reaction solution ([4]; method (a), 600 nm, Serum 2): 0.291 | absorption of the reaction solution ([4]; method (a), 600 nm, Serum 3): 0.389 | absorption of the reaction solution ([4]; method (a), 600 nm, Serum 4): 0.395 | absorption of the reaction solution ([4]; method (a), 600 nm, Serum 5): 0.277 | absorption of the reaction solution ([4]; method (a), 600 nm, Serum 6): 0.322 | absorption of the reaction solution ([4]; method (a), 600 nm, Serum 7): 0.291 | absorption of the reaction solution ([4]; method (a), 600 nm, Serum 8): 0.386 | absorption of the reaction solution ([4]; method (a), 600 nm, Serum 9): 0.392 | absorption of the reaction solution ([4]; method (a), 600 nm, Serum 10): 0.346 | Ratio of sensitivity ([4]; method (a), relative to Example 1 = 100): 73 | absorption of the reaction solution ([4]; method (b) p-N,N-dimethylamino cinnamaldehyde/HCl, 570 nm, Serum 1): 0.386 | absorption of the reaction solution ([4]; method (b), 570 nm, Serum 2): 0.336 | absorption of the reaction solution ([4]; method (b), 570 nm, Serum 3): 0.466 | absorption of the reaction solution ([4]; method (b), 570 nm, Serum 4): 0.460 | absorption of the reaction solution ([4]; method (b), 570 nm, Serum 5): 0.320 | absorption of the reaction solution ([4]; method (b), 570 nm, Serum 6): 0.372 | absorption of the reaction solution ([4]; method (b), 570 nm, Serum 7): 0.333 | absorption of the reaction solution ([4]; method (b), 570 nm, Serum 8): 0.453 | absorption of the reaction solution ([4]; method (b), 570 nm, Serum 9): 0.460 | absorption of the reaction solution ([4]; method (b), 570 nm, Serum 10): 0.405 | Ratio of sensitivity ([4]; method (b), relative to Example 1 = 100): 85 | absorption of the reaction solution ([4]; method (c) sodium nitrite/HCl then 3,5-xylenol, 650 nm, Serum 1): 0.277 | absorption of the reaction solution ([4]; method (c), 650 nm, Serum 2): 0.241 | absorption of the reaction solution ([4]; method (c), 650 nm, Serum 3): 0.330 | absorption of the reaction solution ([4]; method (c), 650 nm, Serum 4): 0.325 | absorption of the reaction solution ([4]; method (c), 650 nm, Serum 5): 0.230 | absorption of the reaction solution ([4]; method (c), 650 nm, Serum 6): 0.270 | absorption of the reaction solution ([4]; method (c), 650 nm, Serum 7): 0.244 | absorption of the reaction solution ([4]; method (c), 650 nm, Serum 8): 0.325 | absorption of the reaction solution ([4]; method (c), 650 nm, Serum 9): 0.331 | absorption of the reaction solution ([4]; method (c), 650 nm, Serum 10): 0.292 | Ratio of sensitivity ([4]; method (c), relative to Example 1 = 100): 61
Structure (SMILES): CC(C)C[C@H](N)C(=O)Nc1ccc(N(CCCS(=O)(=O)O)CCCS(=O)(=O)O)cc1 [Compound No. 2, L-leucyl-p-N,N-disulfopropyl aminoanilide]

λmax: Maximum wavelength [1]: 745 nm | ST: Stability of pigment (Stability of pigment): > 98% | solubility (Solubility of substrate): > 200 mg/mL | γ-GTP activity of the serum sample [2]: 231 mU/ml
Structure (SMILES): N[C@@H](CCC(=O)Nc1ccc(N(CCCS(=O)(=O)O)CCCS(=O)(=O)O)cc1)C(=O)O [compound 1]
